Laboratory results: article PMC10571957, “αV-Integrin-Dependent Inhibition of Glioblastoma Cell Migration, Invasion and Vasculogenic Mimicry by the uPAcyclin Decapeptide” (Cancers, 2023)
Where “and” joins values, the source holds several entries; their conditions need not be identical. Identical values can stand only once.

Experiments:
[1] = test system: U251-MG cells (αV integrin); assay: FITC-uPAcyclin receptor binding/competition, U251-MG; set-up: species or system human; conditions: unlabeled uPAcyclin vs FITC-uPAcyclin, 4 °C
Description: The U87-MG, U251-MG, and U138-MG cell lines were harvested and acid-treated, as described. Then, 2 × 10^6 cells/sample were exposed for 30 min at 4 °C to uPAcyclin or S-uPAcyclin at the indicated concentrations, or with the following antibodies: VNR147 monoclonal anti-αV integrin (Chemicon Int. Inc., Temecula, CA, USA), polyclonal anti-αV (Millipore, Burlington, MA, USA), monoclonal anti-α2 (Chemicon Int. Inc., Temecula, CA, USA), polyclonal anti-actin (Sigma-Aldrich, St. Louis, MO, USA), monoclonal anti-GAPDH (Abcam, Cambridge, UK), and purified vitronectin (VN, Corning, Glendale, AZ, USA). The cells were subsequently incubated with 50 nM FITC-uPAcyclin for 2 h at 4 °C, as described. At the end of incubation, the cells were washed and the cell surface-associated fluorescence was determined using a fluorimeter (VICTOR^TM X3-PerkinElmer, Waltham, MA, USA). All binding assays were performed three times, with duplicate samples, and analyzed as described in Section 2.11.
Figure 2 αV expression of U87-MG, U251-MG, and U138-MG GBM cells and specific binding of FITC-uPAcyclin. […] At the end of the incubation, the unbound material was washed and cell-associated FITC-uPAcyclin was quantitated by a fluorimeter. The net value of cell-surface-associated fluorescence, corresponding to the specific binding, is shown. […]

[2] = test system: U251-MG cells; assay: Boyden chamber Matrigel invasion, U251-MG; format: cell-based, human; conditions: for invasion, % of basal, average 2 expts: mean of 2 expts; for invasion, % of basal, average expt 1: mean of expt 1; for invasion, % of basal, average expt 2: mean of expt 2; for invasion, % of basal, T-test list: single replicates of both expts
Description: The migration and invasion assays were performed using Boyden chambers and 8 µm pore size PVP-free filters coated with 50 µg/mL of collagen type VI (Sigma), as previously described. For the invasion assays, collagen-coated filters were further coated with 50 µg/mL Matrigel^TM (Sigma). Briefly, 11 × 10^4 U87-MG, 4 × 10^4 U251-MG, or 4 × 10^4 U138-MG/sample were pre-treated for 40 min at 37 °C with the indicated effectors. Then, the cells were allowed to migrate for 3 h or to invade for 5 h at 37 °C toward 5% FBS in DMEM/0.1% BSA. At the end of both assays, the cells on the lower filter surface were fixed, stained with haematoxylin, and counted under an optical microscope (Zeiss Axiophot, Carl Zeiss, Milan, Italy) at 20× magnification. The migration and invasion experiments were conducted in triplicate for U87-MG and in duplicate for U251-MG and U138-MG. The migrated or invaded cells were reported as percentage of basal migration or invasion in the presence of DMEM/0.1% BSA, taken as 100%, and analyzed as reported in Section 2.11.
Figure 4 Effect of uPAcyclin on matrix invasion of U87-MG, U251-MG, and U138-MG GBM cells. Quantitative analysis of U87-MG (A), U251-MG (B), and U138-MG (C) invasion. A total of 11 × 10^4 U87-MG or […] U251-MG or U138-MG/sample were pre-treated for 40 min at 37 °C with uPAcyclin (100 nM, 1 µM), anti-αV polyclonal (anti-αV-Pclonal) or monoclonal (anti-αV MoAb) antibody, or anti-actin polyclonal antibody (anti-actin), and then assayed in Boyden chambers at 37 °C, either for basal (BSA) or FBS-dependent invasion (5% FBS) for 5 h at 37 °C. Data are expressed as in the legend to Figure 3. Results are expressed as percentages with respect to the basal invasion, considered as 100% (* p-value < 0.05; ** p-value < 0.005; *** p-value < 0.001).

[3] = test system: breast cancer cell lines; conditions: ref Belli et al. [25]; cited from earlier work
[4] = 100 nM, 5% FBS, 5 h, expt 1, duplicates
[5] = 100 nM, 5% FBS, 5 h, expt 2, duplicates
[6] = 1 µM, 5% FBS, 5 h, expt 1, duplicates
[7] = 1 µM, 5% FBS, 5 h, expt 2, duplicates

Ac-K^1P[ESPPEELK^10]-NH2 (sidechain bridge or staple) [uPAcyclin]
Kdapp [1]: low nanomolar range
reduction in invasion ([2]; 100 nM, U251-MG, 5% FBS, 5 h): 50–60%
invaded cell number/field [2, 4]: 14 cell number/field
invasion, % of basal [2, 4]: 156%
invaded cell number/field [2, 5]: 15 cell number/field and 14 cell number/field
invasion, % of basal [2, 5]: 136% and 127%
invasion, % of basal, average 2 expts ([2]; 100 nM, 5% FBS, 5 h): 144%
invasion, % of basal, average expt 1 ([2]; 100 nM, 5% FBS, 5 h): 156%
invasion, % of basal, average expt 2 ([2]; 100 nM, 5% FBS, 5 h): 132%
invasion, % of basal, T-test list ([2]; 100 nM): 156 and 136 and 127
invasion, in words ([2]; 1 µM, U251-MG, 5% FBS, 5 h): reduced invasion to basal levels
invaded cell number/field [2, 6]: 11 cell number/field and 9 cell number/field
invasion, % of basal [2, 6]: 122% and 100%
invaded cell number/field [2, 7]: 12 cell number/field and 10 cell number/field
invasion, % of basal [2, 7]: 109% and 91%
invasion, % of basal, average 2 expts ([2]; 1 µM, 5% FBS, 5 h): 106%
invasion, % of basal, average expt 1 ([2]; 1 µM, 5% FBS, 5 h): 111%
invasion, % of basal, average expt 2 ([2]; 1 µM, 5% FBS, 5 h): 100%
invasion, % of basal, T-test list ([2]; 1 µM): 122 and 100 and 109 and 91
migration and invasion inhibition [3]: potent inhibitor of migration and invasion of breast cancer cell lines
